Data set [1] has as its system nasal epithelial cell-line (RPMI 2650). Nature of the data set: cytotoxicity against nasal epithelial cell-line. The settings on record: RPMI 2650 cells; even at high concentrations (>5 mM). Format: cell-based.
The test system of the next data set is hot plate test. The note with it: in vivo; cited from earlier work.
Data set [2] relates to Randall-Selitto pressure test. The settings on record: rats; cited from earlier work.
The nature of data set [3]: stability with excipients individually. Format: physicochemical.
The conditions of data set [4]: in vivo; cited from earlier work.
Another data set is described as follows: solubility. The format is physicochemical. The source says:
(§1) Nefopam may thus be rapidly and completely absorbed from the nasal cavity and provide the rapid onset of action required to bring pain relief.

The next data set deals with mouse tail-flick test. The note with it: cited from earlier work.
The nature of data set [5]: stability in solution across pH range. Format: physicochemical. The settings on record: wide pH range (4-7) including pH 5.5-6.5.
Description: as §1

In the case of `CN1CCOC(c2ccccc2)c2ccccc2C1` (racemic) [nefopam], the cytotoxicity entry in data set [1] was “no cytotoxicity”. The “activity in hot plate test” value in the data set with hot plate test is recorded as “not active”. Moreover, in data set [2], the “activity in Randall-Selitto pressure test” value is given as “not active”. Moreover, the “stability with all the excipients individually” value in data set [3] (4 weeks incubation at 25° C.) and in data set [3] (4 weeks incubation at 50° C.) was “demonstrated” throughout. Further, in data set [4], the elimination half-life result is “four”. In addition, the solubility entry in “solubility” was “highly soluble”. In addition, the “activity in mouse tail-flick test” value with mouse tail-flick test was “not active”. In addition, in data set [5], the stability in solution entry is recorded as “stable in solution”.
